The record followed here is US6794396B2, “Substituted pyridines useful for inhibiting cholesteryl ester transfer protein activity” (Pharmacia Corporation, priority 1998, dated 2004).

Bounds are passed on as bounds.

The first experiment deals with T1, CETP (Homo sapiens, UniProt P11597).
T1 construct: made in house; host or cells: CHO cells (serum-free conditioned medium)
T1 sequence (P11597 18-493): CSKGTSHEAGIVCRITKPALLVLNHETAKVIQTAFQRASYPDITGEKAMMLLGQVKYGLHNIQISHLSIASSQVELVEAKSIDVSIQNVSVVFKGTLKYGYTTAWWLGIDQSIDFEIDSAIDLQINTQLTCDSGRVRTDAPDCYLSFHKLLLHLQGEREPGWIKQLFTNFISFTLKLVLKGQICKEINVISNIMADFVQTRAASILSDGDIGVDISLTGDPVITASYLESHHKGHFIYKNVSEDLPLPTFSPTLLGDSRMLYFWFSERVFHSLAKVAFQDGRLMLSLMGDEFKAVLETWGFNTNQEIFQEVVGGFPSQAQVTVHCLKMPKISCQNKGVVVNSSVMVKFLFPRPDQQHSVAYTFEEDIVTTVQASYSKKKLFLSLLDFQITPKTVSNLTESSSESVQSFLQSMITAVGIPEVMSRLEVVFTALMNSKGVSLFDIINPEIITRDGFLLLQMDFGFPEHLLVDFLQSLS
The experiment in a line: CETP activity in vitro: transfer of [3H]CE from HDL donor to LDL acceptor particles. Format: biochemical. Particulars: 10 μm. On the procedure: The ability of compounds to inhibit CETP were assessed using an in vitro assay that measured the rate of transfer of radiolabeled cholesteryl ester ([^3H]CE) from HDL donor particles to LDL acceptor particles. Details of the assay are provided by Glenn et al. (“Quantification of Cholesteryl Ester Transfer Protein (CETP): A) CETP Activity and B) Immunochemical Assay of CETP Protein,” Meth. Enzymol., Glenn and Melton (Meth. Enzymol., 263, 339-351 (1996), which is incorporated herein by reference). CETP was obtained from the serum-free conditioned medium of CHO cells transfected with a cDNA for CETP (Wang, S. et al. J. Biol Chem. 267, 17487-17490 (1992), which is incorporated herein by reference).
To measure CETP activity, [^3H]CE-labeled HDL, LDL, CETP and assay buffer (50 mM tris(hydroxymethyl)amino-methane, pH 7.4; 150 mM sodium chloride; 2 mM ethylenediamine-tetraacetic acid; 1% bovine serum albumin) were incubated in a volume of 200 μl, for 2 hours at 37° C. in 96 well plates. LDL was differentially precipitated by the addition of 50 μl of 1% (w/v) dextran sulfate/0.5 M magnesium chloride, mixed by vortex, and incubated at room temperature for 10 minutes The solution (200μl) was transferred to a filter plate (Millipore). After filtration, the radioactivity present in the precipitated LDL was measured by liquid scintillation counting.
This value was defined as the IC50.
With `CCOC(C)Sc1c(C(F)(F)F)nc(C(F)F)c(C(=O)OC)c1CC(C)C` (centres unmarked) [Compound 146, Methyl 2-(Difluoromethyl)-5-(1-ethoxyethylthio)-4-(2-methylpropyl)-6-(trifluoromethyl)-3-pyridinecarboxylate], the “% transfer at 10 μm” value is 67^D %. The same measure, in the same setting: then `COC(=O)c1c(C(F)F)nc(C(F)(F)F)c(SCCF)c1CC(C)C` [Compound 148, Methyl 2-(Difluoromethyl)-5-(2-fluoroethylthio)4-(2-methylpropyl)-6-(trifluoromethyl)-3-pyridinecarboxylate], with 32^D %.

Still in this experiment, the particulars now being: 50% inhibition of [3H]CE transfer from HDL to LDL, 2 hours at 37° C.; read-out: IC50(μm).
In general, IC50 refers to the concentration at which inhibition is half-maximal. For the compound `COC(=O)c1c(C(F)F)nc(C(F)(F)F)c(C(=O)Oc2ccc(C(C)(C)C)cc2C(C)(C)C)c1CC(C)C` [Compound 168, 3-Methyl 5-(2,4-Di-t-butylphenyl) 2-(Difluoromethyl)-4-(2-methylpropyl)-6-(trifluoromethyl)-3,5-pyridicarboxylate], the IC50 is 60 µM. `COC(=O)c1c(C(F)F)nc(C(F)(F)F)c(C(OC)c2ccns2)c1CC(C)C` (centres unmarked) [Compound 34, Methyl 2-(Difluoromethyl)-5-[(methoxy)isothiazol-5-ylmethyl]-4-(2-methylpropyl)-6-(trifluoromethyl)-3-pyridinecarboxylate]: the IC50 stood at 45 µM. Consider `COC(=O)c1c(C(F)F)nc(C(F)(F)F)c(CI)c1CC(C)C` [Compound 32, Methyl 2-(Difluoromethyl)-5-(iodomethyl)-4-(2-methylpropyl)-6-(trifluoromethyl)-3-pyridinecarboxylate], for which the IC50 turned out to be 45 µM. For the compound `CCOC(=O)c1c(C(F)(F)F)nc(C(F)(F)F)c(C#N)c1OCC` [Compound 64], the IC50 worked out at 60 µM. Turning to `COC(=O)c1c(C(F)F)nc(C(F)(F)F)c(C(O)c2ccco2)c1CC(C)C` (centres unmarked) [Compound 13, Methyl 2-(difluoromethyl)-5-(1-hydroxyl-furylmethyl)-4-(2-methylpropyl)-6-(trifluoromethyl)-3-pyridinecarboxylate], the concentration for half-maximal inhibition (IC50) was 30 µM.

The same experiment, now with this note: 2 h; read-out: % Transfer @ 100 μm.
For the compound `CCOC(=O)c1cnc(C(F)(F)F)c(Oc2ccccc2)c1O` [Compound 109, Ethyl 4-Hydroxy-5-phenoxy-6-(trifluoromethyl)-3-pyridinecarboxylate], the remaining activity at 100 µM worked out at 76%.

Still in this experiment, the particulars now being: IC50(μm), 50% inhibition of [3H]CE transfer from HDL to LDL, 2 hours at 37° C.
Take `COC(=O)c1c(C(F)F)nc(C(F)(F)F)c(C(=NC(C)C)SC)c1CC(C)C` [Compound 58, Methyl 2-(difluoromethyl)-5-{[isopropylimino(methylthio)methyl]}-4-(2-methylpropyl)-6-(trifluoromethyl)-3-pyridinecarboxylate]: 55 µM corresponded to half-maximal inhibition (IC50). The compound `COC(=O)Sc1c(C(F)(F)F)nc(C(F)F)c(C(=O)OC)c1CC(C)C` [Compound 6, Methyl 2-(Difluoromethyl)-4-(2-methylpropyl)-5-[(methoxycarbonyl)thio]-6-(trifluoromethyl)-3-pyridinecarboxylate] gave an IC50 of 8 µM. The same measure, in the same setting: then `CCOC(=O)c1c(C(F)(F)F)nc(C(F)F)c(C(=O)OC)c1S` [Compound 2, 3-Methyl 5-Ethyl 2-(Difluoromethyl)-4-mercapto-6-(trifluoromethyl)-3,5-pyridinedicarboxylate], with 3 µM; and `COC(=O)c1c(C(F)F)nc(C(F)(F)F)c(C(=O)Oc2ccccc2C(C)C)c1CC(C)C` [Compound 175, 3-Methyl 5-(2-Isopropylphenyl) 2-(Difluoromethyl)-4-(2-methylpropyl)-6-(trifluoromethyl)-3,5-pyridicarboxylate], with greater than 100 µM; and `CCCCCCCCCCCCCCCC(=O)Sc1c(C(F)(F)F)nc(C(F)F)c(C(=O)OC)c1CC(C)C` [Compound 5, Methyl 2-(Difluoromethyl)-4-(2-methylpropyl)-5-(palmitoylthio)-6-(trifluoromethyl)-3-pyridinecarboxylate], with 8 µM. The same measure, in the same setting: the figure for `COC=C(Br)c1c(C(F)(F)F)nc(C(F)F)c(C(=O)OC)c1CC1CC1` [Compound 35, Methyl 5-(1-Bromo-2-methoxyethenyl)-4-(cyclopropylmethyl)-2-(difluoromethyl)-6-(trifluoromethyl)-3-pyridinecarboxylate] is 45 µM.

The experiment is the same for the next values; noted with them: IC50, Table 8.
For the compound `C=CC(O)c1c(C(F)F)nc(C(F)(F)F)c(C(=O)OC)c1CC(C)C` (centres unmarked) [Compound 295], the IC50 is greater than 100 µM.

Staying with this experiment, now noted: Table 6, compounds of formula T-6; read-out: IC50.
With `COC(=O)c1c(C(F)F)nc(C(F)(F)F)c(CSc2nccc(C)n2)c1CC(C)C` [Compound 197, Methyl 5-[(4-Methylpyrimidin-2-yl)thiomethyl]-2-(difluoromethyl)-4-(2-methylpropyl)-6-(trifluoromethyl)-3-pyridinecarboxylate], the IC50 was 60 µM. On to `COC(=O)c1c(C(F)F)nc(C(F)(F)F)c(CSc2cccc(Br)c2)c1CC(C)C` [Compound 184, Methyl 5-[(3-Bromophenyl)thiomethyl]-2-(difluoromethyl)-4-(2-methylpropyl)-6-(trifluoromethyl)-3-pyridinecarboxylate], for which the concentration for half-maximal inhibition (IC50) is 30 µM.

Turning to `COC(=O)c1c(C(F)F)nc(C(F)(F)F)c(CSc2ccccc2Cl)c1CC(C)C` [Compound 200, Methyl 5-[(2-Chlorophenyl)thiomethyl]-2-(difluoromethyl)-4-(2-methylpropyl)-6-(trifluoromethyl)-3-pyridinecarboxylate], the 50% inhibitory concentration (IC50) turned out to be 40 µM.

Consider `COC(=O)c1c(C(F)F)nc(C(F)(F)F)c(CSc2cccc(OC)c2)c1CC(C)C` [Compound 211, Methyl 5-[(3-Methoxyphenyl)thiomethyl]-2-(difluoromethyl)-4-(2-methylpropyl)-6-(trifluoromethyl)-3-pyridinecarboxylate], for which the IC50 was 45 µM. In the case of `COC(=O)c1c(C(F)F)nc(C(F)(F)F)c(CSc2ccccc2Br)c1CC(C)C` [Compound 217, Methyl 5-[(2-bromophenyl)thiomethyl]-2-(difluoromethyl)-4-(2-methylpropyl)-6-(trifluoromethyl)-3-pyridinecarboxylate], the IC50 was 50 µM.

The same experiment, now with this note: Table 7, compounds of formula T-7; read-out: IC50.
With `COC(=O)c1c(C(F)F)nc(C(F)(F)F)c(SCc2ccc(Cl)cc2)c1CC(C)C` [Compound 220], the IC50 was determined as 20 µM.

The experiment is the same for the next values; noted with them: Table 8; read-out: IC50.
For the compound `O=Cc1c(C(F)(F)F)nc(C(F)F)c(Cc2ccc3ccccc3c2)c1-c1ccccc1` [Compound 279], the IC50 was 15 µM. As to `CCOC(=O)c1c(C(F)(F)F)nc(C(F)F)c(C(O)c2ccc(Cl)cc2)c1-c1ccccc1` (centres unmarked) [Compound 272], the IC50 was 90 µM. On the same count and under the same terms, then `CC(C)c1ccc(C(=O)c2c(C(F)(F)F)nc(C(F)F)c(CO)c2-c2ccccc2)cc1` [Compound 263], with 40 µM; and `O=Cc1c(C(F)F)nc(C(F)(F)F)c(C(=O)c2ccc(Cl)cc2)c1-c1ccccc1` [Compound 293], with 10.2 µM; and `CC(C)c1ccc(C(O)c2c(C(F)(F)F)nc(C(F)F)c(CO)c2-c2ccccc2)cc1` (centres unmarked) [Compound 266], with greater than 100 µM.

As to `OC(c1ccc(C(F)(F)F)cc1)c1c(C(F)F)nc(C(F)(F)F)c(COCc2ccccc2)c1-c1ccc(F)cc1` (centres unmarked) [Compound 276], the IC50 was greater than 100 µM. For the compound `O=C(c1ccc(Cl)cc1)c1c(C(F)(F)F)nc(C(F)F)c(CO)c1-c1ccccc1` [Compound 258], the IC50 worked out at 15 µM. For `CC(C)CC(O)c1c(C(F)F)nc(C(F)(F)F)c(C(F)c2ccc(C(F)(F)F)cc2)c1-c1ccc(F)cc1` (centres unmarked) [Compound 283], the IC50 is 38.7 µM.
